Data on three molecules can be found in patent publication US20260124215A1, “METHODS OF TREATMENT OF INTESTINAL INFECTIONS” (THE FRANCIS CRICK INSTITUTE LIMITED, priority 2022, published 2026).

As a reminder, the IC50 is the concentration needed to halve the response being measured.

One assay concerns Cryptosporidium parvum. As to the kind of experiment: In vitro IC50 curves in Cryptosporidium-infected HCT-8 intestinal epithelial cell monolayers (imaging of total and female parasites). In kind it is cell-based. Particulars: infected intestinal epithelial cells; development measured by % female parasites in total parasites; figure legends. The method, then: HCT-cells (ATCC; CCL-244) were seeded in a 96-well plate at a density of 30,000 cells/well in complete media (RPMI with 10% FCS) and allowed to grow for 48 hours. Cryptosporidium parvum oocysts (Bunchgrass Farms; Dreary Idaho, USA) were prepared for infection by bleach treating (1% sodium hypochlorite) on ice for 5 minutes to remove bacterial contaminants, followed by a wash step and incubation in 0.75% sodium taurocholate for 10 minutes at 37° C. to trigger excystation. Oocysts were resuspended in infection media (RPMI with 1% FCS) and added to cells in 100 uL media (20,000 oocysts/well). A 10 mM solution of lapaquistat acetate (MedChem Express; Cat. No. HY-16274-1 mg) was created using DMSO as the solvent. From this stock, a half-logarithmic (3.16-fold) dilution series was created in infection media, at 2× the intended final concentration. 3 hours post-infection, 100 uL of each drug dilution was added to the wells. Each drug concentration comprised 6 technical replicates. […] The plate was then imaged using a Cytation cell imaging multimode reader (BioTek) to count host nuclei, total number of parasites, and the number of female parasites among them. […]

For a further assay, the system named is Cryptosporidium. As to conditions: malnourished and immunocompromised patients; cited from earlier work.
Assay [1] has as its system Cryptosporidium parasites. The assay is described as follows: Lapaquistat/Lovastatin combination in Cryptosporidium-infected HCT-8 cells (infection ratio, Opera Phenix). The assay is classed as cell-based. As to conditions: HCT-8, 48 hours of infection, infection ratio = number of parasites/number of host cells, drug alone, read-out: IC50 (ability to limit Cryptosporidium growth). On the procedure: Intestinal epithelial cells (HCT-8) were infected with Cryptosporidium parasites and treated with increasing concentrations of Lapaquistat acetate or Lovastatin, either alone or in combination. After 48 hours of infection, cells were then fixed and stained with a lectin that specifically marks parasites and a Hoechst dye that specifically labels DNA. Cells and parasites were then visualized with an Opera Phenix imaging microscope and infection ratio was calculated as number of parasites/number of host cells.

Consider `F/C(COc1ccc2c(c1)[nH]c1ccccc12)=C1/CN2CCC1CC2` [YM-53601], for which the “efficacy against parasite growth and parasite development” value in the assay on Cryptosporidium parvum was “show efficacy”.

In the case of `CC(=O)Oc1ccccc1C(=O)Nc1ncc([N+](=O)[O-])s1` [nitazoxanide], in the assay on Cryptosporidium, the efficacy in patients result is reported as “limited efficacy”.

As to `CC[C@H](C)C(=O)O[C@H]1C[C@@H](C)C=C2C=C[C@H](C)[C@H](CC[C@@H]3C[C@@H](O)CC(=O)O3)[C@H]21` [Lovastatin], the IC50 in assay [1] amounted to 4.1 µM.
